Data reported in patent US20060253079A1, “Stratum corneum piercing device” (priority 2005, published 2006).
Read-outs that look alike come from different tables or passages of the source.

System: skin site on subject's forearm or face
Conditions: for ENHANCED ACTIVE DELIVERY (HISTAMINE RESPONSE): 0.10% wt/wt histamine, visual inspection after 10 minutes; for PRESENCE OF PIH: graded visually for up to at least 3 weeks; for PRESENCE OF ERYTHEMA: 10 microliters 0.10% wt/wt histamine on treated site
[1] = test subject 1, forearm, 225 micrometer, 8 lbs/cm^2
[2] = test subject 2, forearm, 225 micrometer, 6 lbs/cm^2
[3] = test subject 4, forearm, 185 micrometer, 4.6 lbs/cm^2
[4] = test subject 5, forearm, 185 micrometer, 8 lbs/cm^2
[5] = test subject 6, forehead, 145 micrometer, 5 lbs/cm^2

With `NCCc1c[nH]cn1` [histamine] the “skin's reaction to topically applied histamine” value (control test sites: histamine solution on untreated skin sites not pierced by the microprotrusion members) was “did not result in erythema”, the “skin's reaction to topically applied histamine” value (following microprotrusion treatment) was “manifested in erythema” and the “ENHANCED ACTIVE DELIVERY (HISTAMINE RESPONSE)” value (shortened to “ENHANCED ACTIVE DELIVERY”) [1] was “Yes,”. For the same compound, the “PRESENCE OF PIH” value [1] was “Yes”, the “PRESENCE OF ERYTHEMA” value (test subject 1, forearm, microprotrusion length 225 micrometer, 8 lbs/cm^2) was “Present after” and the “ENHANCED ACTIVE DELIVERY” value [2] was “Yes,”. The “PRESENCE OF PIH” value [2] was “Yes”, the “PRESENCE OF ERYTHEMA” value (test subject 2, forearm, microprotrusion length 225 micrometer, 6 lbs/cm^2) was “Present after” and the “PRESENCE OF PIH” value (test subject 3, cheek (bone), 185 micrometer, 3.2 lbs/cm^2) was “No”. The “PRESENCE OF ERYTHEMA” value (test subject 3, cheek (bone), microprotrusion length 185 micrometer, 3.2 lbs/cm^2) was “No”, the “ENHANCED ACTIVE DELIVERY” value [3] was “Yes,” and the “PRESENCE OF PIH” value [3] was “No”. The “PRESENCE OF ERYTHEMA” value (test subject 4, forearm, microprotrusion length 185 micrometer, 4.6 lbs/cm^2) was “No”, the “ENHANCED ACTIVE DELIVERY” value [4] was “Yes,” and the “PRESENCE OF PIH” value [4] was “Yes”. The “PRESENCE OF ERYTHEMA” value (test subject 5, forearm, microprotrusion length 185 micrometer, 8 lbs/cm^2) was “Present after”, the “ENHANCED ACTIVE DELIVERY” value [5] was “Yes,” and the “PRESENCE OF PIH” value [5] was “No”. For the same compound, the “PRESENCE OF ERYTHEMA” value (test subject 6, forehead, microprotrusion length 145 micrometer, 5 lbs/cm^2) was “No”.
